Measured values taken from patent US9193681B1, “Propionic acids, propionic acid esters, and related compounds” (Promentis Pharmaceuticals, Inc., priority 2014, dated 2015).

Columns and labels:
[1] = test system: human glial cells from brain astrocytoma (1321N1); experiment: 3H-glutamate release from human glial cell culture; format: cell-based; conditions: at 3 hours; 100 μM; relative to untreated control; 1321N1 cells
Protocol: This assay also uses the cell culture system of human glial cells from brain astrocytoma (1321N1) described above. Initially, cells are washed, and ^3H-glutamate is added (PerkinElmer: 1 mCi/mL stock solution is diluted (30 μL+500 μL HBBSS) and 10 μL of diluted radiolabel is added to each well). Following a 1 hour incubation to load the cells with the labeled glutamate, the cells are washed again with HBBSS, and the drug is added. At 30, 90, and 180 minutes, 50 μL of extracellular media is sampled from each well and is measured using a Beckman LS 6500 scintillation counter.

[2] = test system: human glial cells from brain astrocytoma (1321N1); experiment: 14C-cystine uptake in human glial cell culture; format: cell-based; conditions: 100 μM (most effective concentration); relative to untreated control; 1321N1 cells; three hour incubation
Protocol: The screening of the compound was performed using an in vitro culture system of human glial cells from brain astrocytoma (1321N1). Cells were plated on 24 well plates coated with poly-D-lysine and laminin and grown in a balanced salt solution supplemented with 5% heat inactivated horse serum, 5% fetal bovine serum, 2 mM glutamine and glucose (total 21 mM). Cultures were maintained in humidified 5% CO2 incubators at 37° C. for 3-4 days before experiments were performed, at this time the cultures has formed a single confluent layer. For experiments, cultures are washed 3 times into a Na-free HEPES and HCO3^− buffered balanced salt solution. After 1 hour, the test compounds are added. Following a three hour incubation, ^14C-cystine (0.025 mCi/mL) was then added for 20 minutes. Following the ^14C-cystine exposure, cultures were washed 3 times with ice cold HEPES buffered saline solution and dissolved in 250 μl sodium dodecyl sulfate (0.1%). An aliquot (200 μl) was removed and added to scintillation fluid for counting. Values were normalized to ^14C-cystine uptake in untreated controls on the same experimental plate.

rats [3] = experiment: Prepulse inhibition experiment (MK-801-induced deficit); format: in vivo, rat; conditions: 3 mg/kg P.O., MK-801 0.1 mg/kg SC, MK-801 plus vehicle control about 18%
Protocol: Rats were placed on a platform in a sound attenuating chamber (10.875″×14″×19.5″; Hamilton Kinder, Calif.) that rested on a motion sensing plate. During all sessions, the background noise was held constant at 60 dB. A matching session was conducted to determine the magnitude of the average startle response for each rat. This session consisted of a five minute habituation period followed by 20 trials; 17 trials involved the presentation of a single auditory stimulus (pulse stimulus; 50 dB above the background noise) and three trials in which a pre-pulse stimulus (12 db above background) was presented 100 ms before the pulse auditory stimulus. Rats were then assigned into the various treatment groups so that the magnitude of the startle response was equivalent across all groups. Two days later, a testing session was conducted to assess sensorimotor gating. One hour prior to testing, rats received a prodrug (0-100 mg/kg, P.O.) and 55 minutes later acute MK-801 maleate (0.1 mg/kg, SC). […] All startle responses were normalized to vehicle control, and the percent of prepulse inhibition was determined as 100−(average prepulse startle response/average startle stimulus alone)*100.

rats [4] = experiment: Elevated-plus maze; format: in vivo, rat
Protocol: Rats were tested in a standard elevated plus maze; testing occurred in a dimly illuminated room using only two lights mounted over the maze. Animals were allowed to habituate to the room for at least one hour prior to treatment. One hour prior to testing, rats received a Pro-4001 (0-30 mg/kg, P.O.). For testing, the rat was placed in the elevated plus maze for five minutes, alternating the starting position between facing an open arm and facing a closed arm. The session was recorded and an observer blind to treatment recorded the number of explorations, entries and time spent in the open arm. Explorations were defined as the rat placing two feet into an open arm without fully entering said arm. Entries were defined as the rat placing all four feet in an open arm. Time of entry in the open arm was recorded from the time the rat placed four feet in the open arm until two of the rats' feet entered the open square.

[5] = test system: mixed cortical cell cultures containing glial and neuronal cells; experiment: In vitro thiol experiment: intracellular cysteine levels; format: cell-based, mice; conditions: 100 μM
Protocol: Mixed cortical cell cultures containing glial and neuronal cells were prepared from fetal (15-16 day gestation) mice as previously described. Lobner D, Comparison of the LDH and MTT assays for quantifying cell death: validity for neuronal apoptosis?, J Neurosci Methods, 2000, Mar. 15, 96(2), 147-152). Dissociated cortical cells were plated on 24-well plates coated with poly-D-lysine and laminin in Eagles' Minimal Essential Medium (MEM, Earle's salts, supplied glutamine-free) supplemented with 5% heat-inactivated horse serum, 5% fetal bovine serum, 2 mM glutamine and glucose (total 21 mM). Cultures were maintained in humidified 5% CO2 incubators at 37° C. […]
Samples were then sonicated with a Fisher Scientific 60 Sonic Dismembrator. One fraction of this homogenate was analyzed with the Pierce BCA (bicinchoninic acid) method to determine protein concentration. The other fraction was filtered using 3 K molecular weight cutoff, polyethersulfone centrifugal protein filters, and analyzed for thiol content using high-performance liquid chromatography (ALF-115 column, 150×1.0 mm, 3 μm C18; mobile phase: 50 mM citric acid, 10 mM octanesulfonic acid, 2% acetonitrile, pH 2.8, 50 uL/min flow rate) with electrochemical detection (Decade II, Au working electrode, Flex Cell HyREF, 0.55V, Antec Leyden, Netherlands).

CCOC(=O)[C@H](CSC(=O)[C@@H](N)C(C)C)NC(C)=O.Cl [Pro-4001, ethyl (2R)-3-{[(2S)-2-amino-3-methylbutanoyl]sulfanyl}-2-acetamido-propanoate hydrochloride]
increase in 3H-glutamate release [1]: 175%
decrease in 14C-cystine uptake [2]: 50%
% prepulse inhibition (rats [3]): about 27%
increase of time spent on the open arm (rats [4]; 10 mg/kg PO): 50%
time spent on the open arms (rats [4]; 10 mg/kg PO): around 21 seconds
increase of time spent on the open arm (rats [4]; 30 mg/kg PO): 64%
time spent on the open arms (rats [4]; 30 mg/kg PO): around 25 seconds
intracellular cysteine concentration [5]: 0.78 µM
intracellular cysteine concentration, times the control value [5]: approximately 5 times
